Results reported in patent US11988734B2, “Method and application for measuring the intracellular water transmembrane efflux rate, and measurement method and system for magnetic resonance imaging biomarker of glioma” (ZHEJIANG UNIVERSITY, priority 2022, dated 2024).
Where “and” joins values, the source holds several entries; their conditions need not be identical. Equal values may be shown once. Entries after “also recorded” stand apart in the source; their conditions may differ.

How the values were obtained:
C6 cells [1] = test: Slow cycling cell (SCC) fraction by OG cell tracer in C6 cells; format: cell-based; settings: before TMZ 6.0 (±0.4)%
Description: The present invention uses the method of cell tracer to distinguish FCC and SCC. The OG (Oregon Green 488 Carboxylic Acid Diacetate, Succinimidyl Ester) and CTV (CellTrace™ Violet reagent, ThermoFisher scientific, Invitrogen C34557) were used to distinguish FCCs (low OG or CTV intensity) and SCCs (high OG or CTV intensity, e.g., the CTV intensity>10^4) in C6 cell lines and human glioma primary cell culture, respectively. Populations of FCCs and SCCs were identified and isolated in cell cultures based on their capacity to retain OG or CTV. Briefly, the cells were first suspended in PBS containing 25 μM OG and incubated in the dark at 37° C. for 10 min. After incubation, cell samples were washed in DMEM to remove residual dye and then returned to the culturing medium for three days until imaging. Before fluorescence imaging, samples were fixed in 4% PFA for 30 min and then stained with DAPI. The fraction of SCCs was defined as the fraction of OG positive cells in the DAPI positive cells. For primary human glioma primary cell cultures, the cells were stained with 5 μM CTV (the same methods as OG) for three days. Then, the cells fluorescence intensity statistics and counts were measured by a Fluorescence Activating Cell Sorter System (FACS) (LSRFortessa X-20, BD, USA).

C6 cells [2] = test: Water exchange DCE-MRI measurement of intracellular water efflux rate constant kio in C6 cells; format: cell-based; settings: for kio: 50 μM TMZ, control 10.9±0.7; for decrease of kio vs control: TMZ
Procedure: (§1) C6 cells were treated with TMZ (50 μM) and treated with 50 μM TMZ dissolved in 0.1% DMSO […] or 0.1% DMSO in complete culture medium. The magnetic resonance parameters kio and physiological information (cell morphology, AQP4 expression, cell activity and cell migration distance) were obtained on the third and seventh days of TMZ (50 μM) treatment.
(§2) In order to obtain the cell samples for MRI, U87MG (0.5˜1×10^5) or C6 (1˜2×10^6) cell lines were first washed with DPBS, disassociated by adding 1 mL of 0.25% Trypsin-EDTA solution to 60 mm dish and incubating for 0.5 to 1.0 min, and then resuspended with 2 mL PBS (or PBS supplemented with 5 mM Gadoteridol). After centrifuging the cell sample with relative centrifugal force of 150 g at 4° C. for 5 min, the sample was resuspended in a custom MR compatible glass sample tube (diameter 5 mm×length 20 mm) with 250˜300 μL PBS (or PBS+5 mM Gadoteridol). We then centrifuged the MR tubes at 300 g at 4° C. for 2 min before carrying out MRI. For AQP4 inhibition experiments, cells were pre-cultured with 6.4 μM TGN020 (Axon, CAS 51987-99-6) dissolved in PBS for 15 mins or 1 mM ouabain (Sigma, CAS 11018-89-6) for 15 mins, respectively; the PBS in the above steps was replaced with PBS+inhibitor.
The 0.5 T desktop MRI measurement system for cell culture in vitro (Pure Devices GmbH, Germany) includes: the MRI system installed on the anti-vibration platform and the autonomous nuclear magnetic tube containing live cell precipitation from the incubator, 5% CO2+95% O2 and PBS supernatant to ensure high survival rate, and the temperature monitoring optical fiber is installed. All MRI measurements were performed at room temperature (23.5+/−1° C.).
Water exchange DCE-MRI was performed with an inversion-recovery prepared turbo-spin-echo (IR-TSE) sequence and an extracellular Gd-based contrast agent, Gadoteridol (Prohance™ Bracco Diagnostics, Inc., Princeton, NJ). The following scan parameters were used in water exchange DCE-MRI: echo time (TE) 3 ms, turbo factor 16, FOV 12.8×12.8 mm^2, matrix size 32×32. Water exchange DCE-MRI was performed with two CA concentrations, 0 and 5 mM. At [CA]=5 mM, IR-TSE were measured with 13 IR delays (10 ms, 30 ms, 50 ms, 70 ms, 90 ms, 150 ms, 200 ms, 400 ms, 600 ms, 800 ms, 1 s, 5 s, 5 s) with repetition time TR varying together (TR=IR delay+5 s) and single repetition on each IR delay. At [CA]=0 mM, the longest IR delays were extended to 10 s with TR extended simultaneously (TR=IR delay+10 s) to guarantee full recovery of the longitudinal magnetization in each TR. The scan time for a single acquisition at [CA]=0 mM and 5 mM is 10 min and 5.5 min, respectively. Two acquisitions on [CA]=5 mM were acquired and averaged.
IR-TSE signal (M) at each IR delay was taken as the average signal of the cell pellet ROI. Then the signal was subtracted and normalized by the equilibrium magnetization (M0, taken as M with the longest IR delay). We define M as the normalized signal for future SS model analysis: M=(M−M0)/M0 (1)
A two-site-exchange (2SX) SS model was used here with details as described previously ^6. Briefly, the MR signal is considered as the sum of signals of two water sites—intra- and extracellular water, each site is assumed to have a similar longitude recovery rate R1, with pi and po as the mole fraction of water molecules in the intra- and extracellular space, respectively, and pi+po=1. Then the normalized IR-TSE signal M can be described with a biexponential function, M=psmexp(−tR1,sm)+(1−psm)exp(−tR1,lar) (2)
where R1,sm and R1,lar are the apparently smaller and larger R1, respectively, and psm, is the apparent fraction of MR signals showing R1,sm. The three parameters, R1,sm, R1,lar and psm, are determined by […] physical parameters including pi, the intracellular water efflux rate constant (kio), and the R1 of intracellular water (R1i), and the CA-dependent extracellular water R1 (R1o). […]

AQP4 [3] = test: AQP4 expression (immunofluorescence, fluorescence intensity rfu) in C6 cell line during TMZ treatment; format: cell-based; settings: C6 cells, 50 μM TMZ
Procedure: as §1
After the MRI tests, the cell line sample was immediately fixed by 4% paraformaldehyde (PFA) at room temperature for 20 min, then stored in 0.5% PFA (4° C.). For immunofluorescence (IF) testing, protocols following: samples were (1) blocked with 10% goat serum (Beyotime, CO265) for one hour at room temperature; (2) incubated with primary antibody overnight at 4° C. and the secondary antibody at room temperature for 1 h; (3) stained with DAPI (4′,6-diamidino-2-phenylindole, Sigma-Aldrich, 1:1000) at room temperature for 5 min; and (4) washed three times with PBS. […] Data were collected from two fluorescence channels: one in which DAPI was characterized with excitation/emission wavelengths 375 nm/435 to 485 nm and the other with either […] (excitation/emission 470 nm/514 to 567 nm) or green (excitation/emission 525 nm/565 to 650 nm) channels. Fluorescence images were taken from either a Fluorescence Inversion Microscope System (cellSensV1.13, Olympus, Japan) or a confocal laser scanning microscope (fv1200, Olympus, Japan).

U87MG cell line = test: Water exchange DCE-MRI measurement of kio in U87MG cell line with AQP4 inhibition; format: cell-based; settings: Phase I (adaptation period), 6.4 μM TGN020, n=6
Procedure: as §2, with “For AQP4 inhibition experiments, cells were pre-cultured with 6.4 μM TGN020 (Axon, CAS 51987-99-6) dissolved in PBS for 15 mins or 1 mM ouabain (Sigma, CAS 11018-89-6) for 15 mins, respectively; the PBS in the above steps was replaced with PBS+inhibitor.” left out
Water exchange DCE-MRI was performed with an inversion-recovery prepared turbo-spin-echo (IR-TSE) sequence and an extracellular Gd-based contrast agent, Gadoteridol (Prohance™ Bracco Diagnostics, Inc., Princeton, NJ). […] At [CA]=5 mM, IR-TSE were measured with 13 IR delays (10 ms, 30 ms, 50 ms, 70 ms, 90 ms, 150 ms, 200 ms, 400 ms, 600 ms, 800 ms, 1 s, 5 s, 5 s) with repetition time TR varying together (TR=IR delay+5 s) and single repetition on each IR delay. […]
where R1,sm and R1,lar are the apparently smaller and larger R1, respectively, and psm, is the apparent fraction of MR signals showing R1,sm. […] For each condition (e.g., C6 at TMZ 0, 3, and 7 day), at least three samples were measured with IR-TSE at [CA]=0 mM as the baseline data. […]

AQP4 [4] = biological target: T1, AQP4 (Rattus norvegicus, UniProt P47863); test: Pharmacological inhibition of AQP4 in subcutaneous rat glioma model (C6), in vivo water exchange DCE-MRI
T1 construct: C6 cell line was subcutaneously implanted into the right leg of Sprague Dawley (SD) rats to establish a glioma animal model; from tissue; host or cells: Subcutaneous C6 glioma tumour in Sprague Dawley rats (in vivo)
T1 sequence (P47863 whole entry): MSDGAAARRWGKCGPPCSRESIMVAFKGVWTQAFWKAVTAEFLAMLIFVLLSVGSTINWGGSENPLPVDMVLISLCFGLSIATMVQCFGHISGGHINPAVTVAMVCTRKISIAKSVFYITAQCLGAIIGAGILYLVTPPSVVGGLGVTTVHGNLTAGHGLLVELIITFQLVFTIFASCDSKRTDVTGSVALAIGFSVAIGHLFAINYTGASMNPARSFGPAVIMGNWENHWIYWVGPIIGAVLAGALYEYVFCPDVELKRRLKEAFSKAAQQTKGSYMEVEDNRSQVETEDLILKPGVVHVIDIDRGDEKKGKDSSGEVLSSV
Procedure: All experimental protocols for animal studies were approved by the Animal Experimentation Committee of Zhejiang University. Adult (7˜8-week-old) male Sprague Dawley (SD) rats were obtained from the Laboratory Animal Center of Zhejiang University. During glioma cell introduction, rats were anesthetized with a mixture of 2% (v/v) isoflurane in air (R500IE, RWD Life Science Co., Ltd,), and then 100 μl PBS containing 5×10^6 C6 cells and 1% antibiotics (P/S) were slowly injected under the skin at the right leg. Seven to nine days after tumour implementation, the animals were taken for 7 T MRI test and the tumour was quickly removed after and fixed for IHC after MRI.
Here TGN020 was used to inhibit AQP4 in rat glioma model. For TGN020 group, each animal was treated with TGN020 (3 mg/kg, 4 ml/kg body weight) in the tail vein 15 minutes before water exchange DCE-MRI. In order to increase the solubility, before intravenous injection, TGN020 was repeatedly ultrasound and vortex at 37° C. to promote dissolution and dispersion in saline (0.9% NaCl). One day before TGN020 treatment, the same animal was treated with normal saline (4 ml/kg), and then water exchange DCE-MRI data collection was performed. In the control group, animals were treated with the same volume of normal saline on the first day and the second day. Here, the small volume infusion needs to be flushed after infusion to ensure the safety and treatment effect of rats.
In vivo water exchange DCE-MRI is achieved through clinical use of Gd-based CA (dimethylamine gadolinate, Guangzhou, China). In order to better estimate kio, the invention uses the method of two injections of CA, which improves the accuracy of kio estimation by 10 times compared with the traditional method of single injection of contrast agent. In addition, the steady-state multi-gradient echo (MGE) sequence is used to overcome the potential T2* artifacts caused by contrast agents. […] Finally, the fitting error of SS model is carefully analyzed to remove kio with large fitting error.

| Structure (SMILES) | proportion of SCC (OG+) (C6 cells [1]; seventh day of TMZ treatment) | proportion of SCC (OG+) (C6 cells [1]; third day of TMZ treatment) | kio (C6 cells [2]; C6 cells, seventh day of treatment, n=7) | kio (C6 cells [2]; C6 cells, third day of treatment, n=6) | decrease of kio (absolute) (C6 cells [2]; C6 cells, 7th day of TMZ treatment vs control) | decrease of kio vs control (C6 cells [2]; C6 cells, seventh day) | decrease of kio vs control (C6 cells [2]; C6 cells, third day) | decrease of AQP4 expression level, fluorescence intensity (rfu) (AQP4 [3]; seventh day of treatment) | decrease of AQP4 expression level, fluorescence intensity (rfu) (AQP4 [3]; third day of treatment) | effect of AQP4 inhibition on kio (U87MG cell line) | effect of AQP4 inhibition on kio (C6 cells [2]; C6 cells on 7th day of TMZ treatment, 6.4 μM TGN020) | average kio of the whole tumor (AQP4 [4]; TGN020 3 mg/kg tail vein 15 min before DCE-MRI, n=9, saline 6.3±0.6, 3 mg/kg) | decrease of average kio of the whole tumor (AQP4 [4]; TGN020 3 mg/kg vs saline in same animal, n=9, p=0.0246) | average K^trans of the whole tumor (AQP4 [4]; TGN020 3 mg/kg, saline 0.060±0.015) |
| --- | --- | --- | --- | --- | --- | --- | --- | --- | --- | --- | --- | --- | --- | --- |
| Cn1nnc2c(C(N)=O)ncn2c1=O [TMZ, temozolomide] | 28.9 (±0.3) % | 16.0 (±0.1) % | 5.8 ± 0.2 s⁻¹ | 6.7 ± 0.8 s⁻¹ | 4.9 s⁻¹ | 45.5% | 37.3% | 85.9% | 42.5% |  |  |  |  |  |
| O=C(Nc1nncs1)c1cccnc1 [TGN020] |  |  |  |  |  |  |  |  |  | will not lead to a significant decrease in kio; also recorded: will not lead to further reduction of kio | could not further reduce kio; also recorded: did not lead to further reduction of kio | 5 ± 0.7 s⁻¹ and 3.5 ± 0.7 s⁻¹ | 43% | 0.045 ± 0.024 min⁻¹ |
